How the values were obtained:
[1] = molecular target: human activated kallikrein enzyme (Homo sapiens, UniProt P03952); assay: Plasma kallikrein inhibition, fluorogenic PFR-AMC substrate, 500 pM activated kallikrein format; assay type: biochemical; conditions: 500 pM activated kallikrein, 300 uM PFR-AMC, 30 min preincubation, 10 min reaction; read-out: Primary Dose Response Assay: Average EC50
Outline: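 Fluorescence (ex 380/em 460 nm) is read after 10 min of 300 uM PFR-AMC turnover by 500 pM enzyme at RT. Compounds sit with enzyme for 30 min beforehand. Buffer is Tris (pH 7.5) with EDTA, NaCl, PEG-400 and Triton X-100; EC50 values are banded.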

plasma kallikrein = molecular target: T1, plasma kallikrein (Homo sapiens, UniProt P03952); assay: Neat human plasma assay, FXIIa contact pathway-activated, PFR-AMC substrate; assay type: biochemical; conditions: citrated human plasma 78% final, 10 nM human FXIIa, 100 μM PFR-AMC; read-out: Human Plasma Assay: IC90
T1 construct: from tissue
T1 sequence (P03952 391-638 limits assumed): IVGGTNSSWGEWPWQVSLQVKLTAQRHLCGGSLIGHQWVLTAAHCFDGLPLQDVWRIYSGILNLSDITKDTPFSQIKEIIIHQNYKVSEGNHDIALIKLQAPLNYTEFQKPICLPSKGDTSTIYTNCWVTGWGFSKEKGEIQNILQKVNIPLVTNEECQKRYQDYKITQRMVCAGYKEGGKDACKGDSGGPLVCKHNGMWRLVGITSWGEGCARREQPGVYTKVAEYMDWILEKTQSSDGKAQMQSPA
T1 sequence (P03952 20-390 partner limits assumed): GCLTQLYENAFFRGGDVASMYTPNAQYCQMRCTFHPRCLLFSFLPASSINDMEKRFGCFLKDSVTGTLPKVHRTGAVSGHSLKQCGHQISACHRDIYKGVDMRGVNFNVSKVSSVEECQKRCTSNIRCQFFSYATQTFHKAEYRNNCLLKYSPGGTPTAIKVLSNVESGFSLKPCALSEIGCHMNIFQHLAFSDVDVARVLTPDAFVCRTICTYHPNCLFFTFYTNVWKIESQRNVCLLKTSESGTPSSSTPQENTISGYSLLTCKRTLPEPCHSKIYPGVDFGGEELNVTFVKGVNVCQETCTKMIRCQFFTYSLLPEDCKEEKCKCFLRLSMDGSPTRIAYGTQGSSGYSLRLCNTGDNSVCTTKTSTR
Method: To analyze inhibition of plasma kallikrein in an ex vivo setting, the potency of compounds was measure in contact pathway-activated plasma assays. In a fluorogenic peptide substrate assay, test compounds dissolved in DMSO were added to sodium citrate collected human or rat plasma in a 96-well microplate. Alternatively, citrated plasma was collected from rats administered the compounds orally or by IV. 10 nM of human FXIIa (Enzyme Research Laboratories) diluted in pKal buffer (20 mM Tris-HCl, pH 7.5, 150 mM NaCl, 1 mM EDTA, 0.1% PEG-8000, and 0.1% Triton X-100) was added to the plasma, followed by the 100 μM of the profluorescent, synthetic plasma kallikrein substrate PFR-AMC (also diluted in pKal buffer). Final plasma concentration in the reaction was 78%. Fluorescence was immediately monitored by excitation/emission wavelengths of 360 nm/480 nm respectively over a period of 5 minutes in a microplate reader. The resulting linear increase in fluorescence emission (reflecting pKal proteolysis of PFR-AMC substrate) was fit to extract a proteolytic rate (fluorescent units over time), and this rate was subsequently plotted against compound inhibitor concentration. Resulting plots were fit to a standard 4-parameter IC50/IC90 equation to determine min/max values, IC50/90, and slope. All experimental steps were performed at room temperature. Table 50 provides results of the assay.

human activated kallikrein enzyme, sequence (P03952 391-638 limits assumed): as the sequence (P03952 391-638 limits assumed) above
human activated kallikrein enzyme, sequence (P03952 20-390 partner limits assumed): as the sequence (P03952 20-390 partner limits assumed) above

| Compound | EC50 [1] | IC90 (plasma kallikrein) |
| --- | --- | --- |
| O=C(Nc1cc(N2C[C@@H](O)C[C@@H]2c2cn3cc(C4CC4)cc(N4CCOC4=O)c3n2)ncn1)[C@H]1C[C@@H]1c1cccc(Cl)c1 [Example 479, (1S,2S)-2-(3-chlorophenyl)-N-(6-((2R,4S)-2-(6-cyclopropyl-8-(2-oxooxazolidin-3-yl)imidazo[1,2-a]pyridin-2-yl)-4-hydroxypyrrolidin-1-yl)pyrimidin-4-yl)cyclopropane-1-carboxamide] | 1 to 10 nM | 1500 to 10000 nM |
| CN1CCN(c2cc(C3CC3)cn3cc(CNc4cc(NC(=O)[C@H]5C[C@@H]5c5cc(Cl)ccn5)ncn4)nc23)CC1 (racemic) [Example I-192, rac-(1S*,2S*)-2-(4-chloropyridin-2-yl)-N-(6-(((6-cyclopropyl-8-(4-methylpiperazin-1-yl)imidazo[1,2-a]pyridin-2-yl)methyl)amino)pyrimidin-4-yl)cyclopropane-1-carboxamide] | < 1 nM | 1500 to 10000 nM |
| O=C(O)CCc1cc(C2CC2)cn2cc(CNc3ccnc(NC(=O)[C@H]4C[C@@H]4c4cccc(Cl)c4)c3)nc12 [Example 290, 3-(2-(((2-((1S,2S)-2-(3-chlorophenyl)cyclopropane-1-carboxamido)pyridin-4-yl)amino)methyl)-6-cyclopropylimidazo[1,2-a]pyridin-8-yl)propanoic acid] | < 1 nM | 1500 to 10000 nM |
| O=C(Nc1cc(NCc2cn3cc(C4CC4)ccc3n2)cnn1)[C@H]1C[C@@H]1c1cccc(Cl)c1 (racemic) [Example 101, rac-(1S*,2S*)-2-(3-chlorophenyl)-N-(5-(((6-cyclopropylimidazo[1,2-a]pyridin-2-yl)methyl)amino)pyridazin-3-yl)cyclopropane-1-carboxamide] | 1 to 10 nM | 10000 to 48000 nM |
| Cc1ccnc([C@H]2C[C@@H]2C(=O)Nc2ncc(C(F)(F)F)c(OCc3cn4cc(C5CC5)cc(N5CC(=O)N(C)C5=O)c4n3)n2)n1 (racemic) [Example 628, rac-(1S*,2S*)—N-(4-((6-cyclopropyl-8-(3-methyl-2,4-dioxoimidazolidin-1-yl)imidazo[1,2-a]pyridin-2-yl)methoxy)-5-(trifluoromethyl)pyrimidin-2-yl)-2-(4-methylpyrimidin-2-yl)cyclopropane-1-carboxamide] | < 1 nM | 400 to 1500 nM |
| CN(C)C1CCN(c2cc(C3CC3)cn3cc(CNc4cc(NC(=O)[C@H]5C[C@@H]5c5cccc(Cl)c5)ncn4)nc23)C1=O (stereo partly drawn) [Example I-17, (1S,2S)-2-(3-chlorophenyl)-N-(6-(((6-cyclopropyl-8-(3-(dimethylamino)-2-oxopyrrolidin-1-yl)imidazo[1,2-a]pyridin-2-yl)methyl)amino)pyrimidin-4-yl)cyclopropane-1-carboxamide] | < 1 nM | 400 to 1500 nM |
| Cc1ccnc([C@H]2C[C@@H]2C(=O)Nc2nc(Cl)nc(NCc3cn4cc(C5CC5)cc(N5CC(=O)N(C)C5=O)c4n3)n2)n1 (racemic) [Example 622, rac-(1S*,2S*)—N-(4-chloro-6-(((6-cyclopropyl-8-(3-methyl-2,4-dioxoimidazolidin-1-yl)imidazo[1,2-a]pyridin-2-yl)methyl)amino)-1,3,5-triazin-2-yl)-2-(4-methylpyrimidin-2-yl)cyclopropane-1-carboxamide] | < 1 nM | 400 to 1500 nM |
| COCc1nc(NCc2cn3cc(C4CC4)ccc3n2)cc(NC(=O)[C@@H]2C[C@H]2c2cccc(Cl)c2)n1 (racemic) [Example 108, rac-(1S*,2S*)-2-(3-chlorophenyl)-N-(6-(((6-cyclopropylimidazo[1,2-a]pyridin-2-yl)methyl)amino)-2-(methoxymethyl)pyrimidin-4-yl)cyclopropane-1-carboxamide] | 1 to 10 nM | 10000 to 48000 nM |
| O=C(Nc1cc(N(CCO)Cc2cn3cc(C4CC4)ccc3n2)ccn1)[C@H]1C[C@@H]1c1cc(Cl)ccn1 [Example 137, (1S,2S)-2-(4-chloropyridin-2-yl)-N-(4-(((6-cyclopropylimidazo[1,2-a]pyridin-2-yl)methyl)(2-hydroxyethyl)amino)pyridin-2-yl)cyclopropane-1-carboxamide] | < 1 nM | 1500 to 10000 nM |
| Cc1cc(N2CC(=O)N(C)C2=O)c2nc([C@@H](C)Nc3cc(NC(=O)[C@H]4C[C@@H]4c4nccc(C)n4)ncn3)cn2c1 [Example 423, (1S,2S)-N-(6-(((R)-1-(6-methyl-8-(3-methyl-2,4-dioxoimidazolidin-1-yl)imidazo[1,2-a]pyridin-2-yl)ethyl)amino)pyrimidin-4-yl)-2-(4-methylpyrimidin-2-yl)cyclopropane-1-carboxamide] | < 1 nM | < 400 nM |
| Cc1ccnc([C@H]2C[C@@H]2C(=O)Nc2cc(OCc3cn4cc(C5CC5)cc(N5CC(=O)N(C)C5=O)c4n3)cnn2)n1 [Example 558, (1S,2S)-N-(5-((6-cyclopropyl-8-(3-methyl-2,4-dioxoimidazolidin-1-yl)imidazo[1,2-a]pyridin-2-yl)methoxy)pyridazin-3-yl)-2-(4-methylpyrimidin-2-yl)cyclopropane-1-carboxamide] | < 1 nM | < 400 nM |
| O=C(Nc1cc(NCc2cn3cc(C4CC4)cc(N4CC(=O)N(C5CC5)C4=O)c3n2)ccn1)[C@H]1C[C@@H]1c1cccc(Cl)c1 [Example 513, (1S,2S)-2-(3-chlorophenyl)-N-(4-(((6-cyclopropyl-8-(3-cyclopropyl-2,4-dioxoimidazolidin-1-yl)imidazo[1,2-a]pyridin-2-yl)methyl)amino)pyridin-2-yl)cyclopropane-1-carboxamide] | < 1 nM | 1500 to 10000 nM |
| Cc1ccnc([C@H]2C[C@@H]2C(=O)Nc2cncc(NCc3cn4cc(C5CC5)cc(N5CC(=O)N(C)C5=O)c4n3)c2)n1 (racemic) [Example 575, rac-(1S*,2S*)-N-(5-(((6-cyclopropyl-8-(3-methyl-2,4-dioxoimidazolidin-1-yl)imidazo[1,2-a]pyridin-2-yl)methyl)amino)pyridin-3-yl)-2-(4-methylpyrimidin-2-yl)cyclopropane-1-carboxamide] | < 1 nM | < 400 nM |
| CCN(Cc1cn2cc(C3CC3)cc(N3CC(=O)N(C)C3=O)c2n1)c1cc(NC(=O)[C@H]2C[C@@H]2c2nccc(C)n2)nc(C)n1 [Example 360, (1S,2S)-N-(6-(((6-cyclopropyl-8-(3-methyl-2,4-dioxoimidazolidin-1-yl)imidazo[1,2-a]pyridin-2-yl)methyl)(ethyl)amino)-2-methylpyrimidin-4-yl)-2-(4-methylpyrimidin-2-yl)cyclopropane-1-carboxamide] | 1 to 10 nM | 400 to 1500 nM |
| Cc1ccnc([C@H]2C[C@@H]2C(=O)Nc2cc(NCc3cn4cc(C5CC5)cc(N5CC(=O)N(C)C5=O)c4n3)ccn2)n1 (racemic) [Example I-208, rac-(1S*,2S*)-N-(4-(((6-cyclopropyl-8-(3-methyl-2,4-dioxoimidazolidin-1-yl)imidazo[1,2-a]pyridin-2-yl)methyl)amino)pyridin-2-yl)-2-(4-methylpyrimidin-2-yl)cyclopropane-1-carboxamide] | < 1 nM | < 400 nM |
| O=C(Nc1cc(NCc2cn3cc(C4CC4)cc(N4CC(F)C4)c3n2)ccn1)[C@H]1C[C@@H]1c1cccc(Cl)c1 [Example 125, (1S,2S)-2-(3-chlorophenyl)-N-(4-(((6-cyclopropyl-8-(3-fluoroazetidin-1-yl)imidazo[1,2-a]pyridin-2-yl)methyl)amino)pyridin-2-yl)cyclopropane-1-carboxamide] | 1 to 10 nM | 10000 to 48000 nM |
| CCN1CCN(c2cc(C3CC3)cn3cc(CNc4ccnc(NC(=O)[C@H]5C[C@@H]5c5cccc(Cl)c5)c4)nc23)CC1 [Example I-234, (1S,2S)-2-(3-chlorophenyl)-N-(4-(((6-cyclopropyl-8-(4-ethylpiperazin-1-yl)imidazo[1,2-a]pyridin-2-yl)methyl)amino)pyridin-2-yl)cyclopropane-1-carboxamide] | < 1 nM | < 400 nM |
| Cc1ccnc([C@H]2C[C@@H]2C(=O)Nc2cc(NCc3cn4cc(C5CC5)cc(N5CC(=O)N(C)C5=O)c4n3)n3ncnc3n2)n1 (racemic) [Example 624, rac-(1S*,2S*)—N-(7-(((6-cyclopropyl-8-(3-methyl-2,4-dioxoimidazolidin-1-yl)imidazo[1,2-a]pyridin-2-yl)methyl)amino)-[1,2,4]triazolo[1,5-a]pyrimidin-5-yl)-2-(4-methylpyrimidin-2-yl)cyclopropane-1-carboxamide] | < 1 nM | – |
| Cc1ccnc([C@H]2C[C@@H]2C(=O)Nc2cc(C#N)cc(NCc3cn4cc(C5CC5)cc(N5CC(=O)N(C)C5=O)c4n3)c2)n1 [Example I-655, (1S,2S)—N-(3-cyano-5-(((6-cyclopropyl-8-(3-methyl-2,4-dioxoimidazolidin-1-yl)imidazo[1,2-a]pyridin-2-yl)methyl)amino)phenyl)-2-(4-methylpyrimidin-2-yl)cyclopropane-1-carboxamide] | < 1 nM | – |

Reference: patent US20240228488A1 (TAKEDA PHARMACEUTICAL COMPANY LIMITED, priority 2021, published 2024)
